Measured values reported in ChEMBL document CHEMBL1201862, “PubChem BioAssay data set” (2004).
Activity calls are given as the source filed them.

Columns and labels:
Streptokinase A = target: T1, Streptokinase A (Streptococcus pyogenes serotype M1, UniProt P10520); experiment: S. pyogenes streptokinase expression inhibitors, potency, dose response, plasminogen activation absorbance, OD405 (AID 1914); format: functional, Streptococcus pyogenes M1 GAS;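 further: secreted streptokinase activity via plasminogen activation per viability signal from cell pellet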
T1 sequence (P10520 whole entry): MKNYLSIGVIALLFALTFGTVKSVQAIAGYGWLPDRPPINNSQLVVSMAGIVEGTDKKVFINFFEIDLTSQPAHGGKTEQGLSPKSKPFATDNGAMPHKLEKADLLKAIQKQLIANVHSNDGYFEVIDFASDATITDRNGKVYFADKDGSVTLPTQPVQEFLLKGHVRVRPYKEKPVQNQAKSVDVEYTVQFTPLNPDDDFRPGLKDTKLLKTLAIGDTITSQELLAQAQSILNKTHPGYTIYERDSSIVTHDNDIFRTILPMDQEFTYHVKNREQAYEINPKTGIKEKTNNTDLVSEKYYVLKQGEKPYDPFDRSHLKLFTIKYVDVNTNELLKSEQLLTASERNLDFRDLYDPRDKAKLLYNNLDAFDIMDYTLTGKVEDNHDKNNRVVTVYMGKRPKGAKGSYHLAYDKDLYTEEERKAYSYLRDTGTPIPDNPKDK

[1] = HIV-1 Env-mediated cell fusion inhibitors, dose response, CCR5-tropic Env (AID 2279); format: functional
[2] = tested on: Streptococcus sp. 'group A'; experiment: growth inhibition of control SK(-) GAS strain, dose response, counter-screen for streptokinase expression inhibitor project, luminescence, kanamycin, BacTiterGlo, confirmation (AID 1900); format: functional, organism-based
[3] = NIH-3T3 fibroblast cytotoxicity, dose response, cytotoxicity control, cell-based, fluorescence, Alamar Blue, secondary assay (AID 2327); format: functional;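 further: NIH-3T3 mouse fibroblasts cultured with fluconazole at 8 µg/mL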
[4] = C. albicans growth with fluconazole, confirmation, fluorescence, retest (AID 2467); format: functional, cell-based
Streptococcus = experiment: Group A Streptococcus viability loss, dose response, counter-screen for streptokinase expression inhibitor project, luminescence, BacTiterGlo (AID 1915); format: functional, organism-based;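 further: potency for reduction of bacterial viability or growth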
Aminopeptidase N = target: T2, Aminopeptidase N (Plasmodium falciparum FcB1/Columbia, UniProt O96935); experiment: P. falciparum M1AAP inhibitors, biochemical, fluorogenic H-Leu-NHMec substrate, 1536-well (AID 1445); parameters: species or system Plasmodium falciparum 3D7, 3D7
T2 sequence (O96935 whole entry): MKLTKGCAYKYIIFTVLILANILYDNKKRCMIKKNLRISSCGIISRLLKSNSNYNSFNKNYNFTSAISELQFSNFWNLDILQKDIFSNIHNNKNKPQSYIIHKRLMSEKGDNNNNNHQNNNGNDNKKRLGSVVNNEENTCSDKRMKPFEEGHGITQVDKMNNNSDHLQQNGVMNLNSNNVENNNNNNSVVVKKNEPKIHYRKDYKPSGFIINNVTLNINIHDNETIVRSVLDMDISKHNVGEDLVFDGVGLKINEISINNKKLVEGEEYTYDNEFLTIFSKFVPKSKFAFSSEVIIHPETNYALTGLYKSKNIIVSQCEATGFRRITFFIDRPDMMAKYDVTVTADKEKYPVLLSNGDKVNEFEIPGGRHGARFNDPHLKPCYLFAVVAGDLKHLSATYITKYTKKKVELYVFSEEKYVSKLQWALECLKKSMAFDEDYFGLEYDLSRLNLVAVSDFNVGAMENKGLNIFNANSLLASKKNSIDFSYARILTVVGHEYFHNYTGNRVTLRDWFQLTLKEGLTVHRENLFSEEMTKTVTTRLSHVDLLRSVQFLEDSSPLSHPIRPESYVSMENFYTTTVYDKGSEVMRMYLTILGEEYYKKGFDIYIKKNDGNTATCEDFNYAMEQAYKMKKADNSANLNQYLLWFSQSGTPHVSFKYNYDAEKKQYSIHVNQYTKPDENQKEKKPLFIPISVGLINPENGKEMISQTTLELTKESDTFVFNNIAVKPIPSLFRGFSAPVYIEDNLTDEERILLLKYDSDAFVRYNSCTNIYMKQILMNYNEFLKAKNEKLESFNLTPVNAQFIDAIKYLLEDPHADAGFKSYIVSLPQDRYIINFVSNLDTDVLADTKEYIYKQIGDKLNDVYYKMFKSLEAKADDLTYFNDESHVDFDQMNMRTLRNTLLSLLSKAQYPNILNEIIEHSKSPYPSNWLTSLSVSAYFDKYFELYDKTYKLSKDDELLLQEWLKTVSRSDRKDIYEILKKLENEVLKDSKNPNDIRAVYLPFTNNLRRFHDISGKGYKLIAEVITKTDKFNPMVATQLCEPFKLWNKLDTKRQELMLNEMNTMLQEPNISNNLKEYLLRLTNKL

Genome polyprotein = Genome polyprotein (dengue virus type 2, UniProt P29990); experiment: Dengue-2 NS5 methyltransferase inhibitors, primary screen, biochemical, confirmation dose response (AID 588689); format: functional
[5] = target: DNA dC->dU-editing enzyme APOBEC-3A (Homo sapiens, UniProt P31941); experiment: Dose Response confirmation of small molecule APOBEC3A DNA Deaminase Inhibitors via a fluorescence-based single-stranded DNA deaminase assay. [Related pubchem assays (depositor defined):AID493011, AID493024]; format: functional
[6] = enhancers of respiration in Yfh1-depleted yeast, dose response, Friedreich's ataxia, plus single-dose screen (AID 1465); format: functional;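 further: yeast depleted of Yfh1p frataxin homolog grown on glycerol needing respiration; WST-1 tetrazolium dye reduction as measure of cellular dehydrogenase metabolic activity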
[7] = target: DNA dC->dU-editing enzyme APOBEC-3G (Homo sapiens, UniProt Q9HC16); format: functional;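 further: Dose-response counterscreen measuring inhibition of APOBEC3G DNA deaminase activity, run while confirming APOBEC3A inhibitors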
[8] = target: T3, Alkaline phosphatase, tissue-nonspecific isozyme (Homo sapiens, UniProt P05186)
T3 sequence (P05186 whole entry): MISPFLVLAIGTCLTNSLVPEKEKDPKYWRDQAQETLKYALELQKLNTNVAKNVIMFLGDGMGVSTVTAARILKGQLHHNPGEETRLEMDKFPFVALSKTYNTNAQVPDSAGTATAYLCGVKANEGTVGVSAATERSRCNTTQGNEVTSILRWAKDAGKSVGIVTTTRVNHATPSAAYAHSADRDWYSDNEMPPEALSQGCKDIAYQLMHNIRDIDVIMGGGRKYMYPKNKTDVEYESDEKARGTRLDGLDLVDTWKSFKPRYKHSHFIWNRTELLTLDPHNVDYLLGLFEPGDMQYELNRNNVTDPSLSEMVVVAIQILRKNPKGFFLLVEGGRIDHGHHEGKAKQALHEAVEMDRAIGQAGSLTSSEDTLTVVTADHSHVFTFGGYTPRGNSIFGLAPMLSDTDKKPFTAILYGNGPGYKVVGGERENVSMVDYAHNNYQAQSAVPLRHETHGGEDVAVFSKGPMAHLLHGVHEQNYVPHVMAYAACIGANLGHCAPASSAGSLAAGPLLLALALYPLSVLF

[9] = target: T4, Neuropeptide Y receptor type 1 (Homo sapiens, UniProt P25929); format: functional;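 further: HEK293 cells with a CNG channel challenged with NPY then isoproterenol; potency as antagonist that reverses NPY suppression of cAMP signal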
T4 sequence (P25929 whole entry): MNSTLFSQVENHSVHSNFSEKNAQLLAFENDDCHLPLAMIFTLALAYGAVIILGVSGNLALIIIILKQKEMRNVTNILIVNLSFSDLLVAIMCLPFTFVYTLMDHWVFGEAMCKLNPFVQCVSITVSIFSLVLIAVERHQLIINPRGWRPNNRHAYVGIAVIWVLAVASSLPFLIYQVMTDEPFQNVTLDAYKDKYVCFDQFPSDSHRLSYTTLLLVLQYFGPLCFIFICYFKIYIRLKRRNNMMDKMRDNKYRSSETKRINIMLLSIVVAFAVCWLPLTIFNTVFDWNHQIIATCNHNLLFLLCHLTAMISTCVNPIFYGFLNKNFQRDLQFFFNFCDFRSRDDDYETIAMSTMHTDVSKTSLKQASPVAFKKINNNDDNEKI

[10] = target: T5, Neuropeptide Y receptor type 2 (Homo sapiens, UniProt P49146); format: functional, cell-based;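 further: HEK293 cells expressing the receptor and a CNG channel; stimulus was NPY near EC95 followed by isoproterenol to raise cAMP; antagonist potency measured as restoring cAMP signal that NPY suppresses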
T5 sequence (P49146 whole entry): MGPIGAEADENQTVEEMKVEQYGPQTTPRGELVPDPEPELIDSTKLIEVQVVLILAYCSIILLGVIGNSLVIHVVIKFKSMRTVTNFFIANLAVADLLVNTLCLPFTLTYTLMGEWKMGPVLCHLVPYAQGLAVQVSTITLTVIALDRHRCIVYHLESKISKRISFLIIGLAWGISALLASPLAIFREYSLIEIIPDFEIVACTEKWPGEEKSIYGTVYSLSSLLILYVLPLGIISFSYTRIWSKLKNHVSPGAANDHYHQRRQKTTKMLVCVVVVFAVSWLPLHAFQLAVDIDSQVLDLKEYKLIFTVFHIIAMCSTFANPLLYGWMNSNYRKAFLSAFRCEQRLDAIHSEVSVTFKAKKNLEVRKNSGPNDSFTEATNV

Bcl-2-like protein 10 = target: T6, Bcl-2-like protein 10 (Homo sapiens, UniProt Q9HD36); experiment: Biochemical TR3 FP assay of Bcl-B inhibitor potency, EC50 (AID 1243); format: functional
T6 sequence (Q9HD36 whole entry): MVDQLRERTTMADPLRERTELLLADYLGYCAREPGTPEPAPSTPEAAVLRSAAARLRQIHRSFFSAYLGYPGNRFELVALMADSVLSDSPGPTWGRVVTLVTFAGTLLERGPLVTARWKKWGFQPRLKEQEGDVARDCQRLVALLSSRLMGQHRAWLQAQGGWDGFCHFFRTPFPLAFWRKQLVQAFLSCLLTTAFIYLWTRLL

[11] = target: T7, Zinc finger protein mex-5 (Caenorhabditis elegans, UniProt Q9XUB2); experiment: MEX-5/TCR-2 RNA interaction inhibitors, dose response, biochemical, C. elegans, fluorescence polarization (AID 1960)
T7 sequence (Q9XUB2 whole entry): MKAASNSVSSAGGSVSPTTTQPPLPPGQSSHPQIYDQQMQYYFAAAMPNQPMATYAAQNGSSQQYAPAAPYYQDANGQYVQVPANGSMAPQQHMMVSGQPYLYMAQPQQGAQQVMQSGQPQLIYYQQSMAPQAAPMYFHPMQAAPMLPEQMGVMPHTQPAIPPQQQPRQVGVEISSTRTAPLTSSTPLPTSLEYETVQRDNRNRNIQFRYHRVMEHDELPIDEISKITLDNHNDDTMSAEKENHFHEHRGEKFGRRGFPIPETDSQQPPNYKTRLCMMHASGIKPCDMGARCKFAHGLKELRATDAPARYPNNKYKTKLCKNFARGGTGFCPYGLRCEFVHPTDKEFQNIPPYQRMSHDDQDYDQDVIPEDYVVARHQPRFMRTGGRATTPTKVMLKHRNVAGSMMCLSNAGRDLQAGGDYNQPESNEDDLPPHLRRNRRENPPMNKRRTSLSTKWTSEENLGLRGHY

Vero = experiment: cells; format: functional; settings: Chlorocebus sabaeus
cells = format: functional
[12] = THP-1 cell cytotoxicity, dose response, cytotoxicity control for non-replicating M. tuberculosis project (AID 489025); format: functional
NS3 = NS3 (Hepatitis C virus, UniProt A3EZJ3); experiment: PubChem AID 2173; parameters: species or system Hepacivirus hominis
[13] = target: T8, Heat shock factor protein 1 (Mus musculus, UniProt P38532); experiment: HSF1 potentiators in luciferase reporter cells, confirmation, cell-based, NIH3T3, luminescence, dose retest (AID 435004); format: functional;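 further: stress induced by proteasome inhibitor MG132 added 30 min after compound; luciferase reporter driven by HSF1 response element in NIH3T3 cells; actives raise luminescence as potentiators of the MG132 stress response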
T8 sequence (P38532 whole entry): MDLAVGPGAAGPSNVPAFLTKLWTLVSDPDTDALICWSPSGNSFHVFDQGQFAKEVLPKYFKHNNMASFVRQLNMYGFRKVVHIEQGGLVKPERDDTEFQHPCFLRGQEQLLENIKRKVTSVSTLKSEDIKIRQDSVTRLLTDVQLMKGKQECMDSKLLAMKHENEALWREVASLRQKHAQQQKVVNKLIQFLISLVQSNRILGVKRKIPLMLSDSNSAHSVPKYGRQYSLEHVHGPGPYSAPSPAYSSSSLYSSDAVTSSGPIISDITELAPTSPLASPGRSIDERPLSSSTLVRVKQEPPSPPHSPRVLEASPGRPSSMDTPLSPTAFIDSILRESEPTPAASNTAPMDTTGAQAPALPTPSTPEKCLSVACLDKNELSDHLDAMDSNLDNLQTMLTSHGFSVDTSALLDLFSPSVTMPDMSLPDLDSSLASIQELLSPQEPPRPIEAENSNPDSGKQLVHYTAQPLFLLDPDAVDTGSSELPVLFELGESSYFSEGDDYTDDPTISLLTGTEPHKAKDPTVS

[14] = target: T9, RNA-binding protein pos-1 (Caenorhabditis elegans, UniProt G5EF15); experiment: inhibitors of POS-1/mex-3 RNA binding, dose response, biochemical, fluorescence polarization (AID 1964);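 further: purified POS-1 fused to maltose binding protein made in E. coli; potency of compounds blocking POS-1 binding to fluorescent RNA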
T9 sequence (G5EF15 whole entry): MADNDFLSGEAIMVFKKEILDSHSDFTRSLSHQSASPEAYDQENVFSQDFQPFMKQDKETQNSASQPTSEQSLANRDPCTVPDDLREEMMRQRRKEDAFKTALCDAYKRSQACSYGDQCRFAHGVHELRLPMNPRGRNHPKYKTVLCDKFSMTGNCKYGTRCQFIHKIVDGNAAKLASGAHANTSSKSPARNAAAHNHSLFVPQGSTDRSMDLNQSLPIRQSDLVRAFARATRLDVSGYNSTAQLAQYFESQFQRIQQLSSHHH

DNA dC->dU-editing enzyme APOBEC-3A, sequence (P31941 whole entry): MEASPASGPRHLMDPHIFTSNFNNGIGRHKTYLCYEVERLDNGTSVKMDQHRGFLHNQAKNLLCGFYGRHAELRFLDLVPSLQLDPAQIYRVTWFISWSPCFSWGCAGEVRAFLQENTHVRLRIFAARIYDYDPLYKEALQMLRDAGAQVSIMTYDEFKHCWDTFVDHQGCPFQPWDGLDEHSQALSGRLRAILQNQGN
DNA dC->dU-editing enzyme APOBEC-3G, sequence (Q9HC16 whole entry): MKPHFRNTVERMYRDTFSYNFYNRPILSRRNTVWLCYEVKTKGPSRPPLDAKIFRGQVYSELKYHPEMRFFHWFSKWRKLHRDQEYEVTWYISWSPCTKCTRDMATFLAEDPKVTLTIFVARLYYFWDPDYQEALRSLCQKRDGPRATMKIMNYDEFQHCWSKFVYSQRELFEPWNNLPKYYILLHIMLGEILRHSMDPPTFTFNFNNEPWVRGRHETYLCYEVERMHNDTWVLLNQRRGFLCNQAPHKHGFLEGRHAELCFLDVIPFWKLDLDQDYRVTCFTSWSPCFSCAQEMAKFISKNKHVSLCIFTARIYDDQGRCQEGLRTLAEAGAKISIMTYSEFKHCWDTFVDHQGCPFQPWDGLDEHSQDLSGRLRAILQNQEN
NS3, sequence (A3EZJ3 whole entry): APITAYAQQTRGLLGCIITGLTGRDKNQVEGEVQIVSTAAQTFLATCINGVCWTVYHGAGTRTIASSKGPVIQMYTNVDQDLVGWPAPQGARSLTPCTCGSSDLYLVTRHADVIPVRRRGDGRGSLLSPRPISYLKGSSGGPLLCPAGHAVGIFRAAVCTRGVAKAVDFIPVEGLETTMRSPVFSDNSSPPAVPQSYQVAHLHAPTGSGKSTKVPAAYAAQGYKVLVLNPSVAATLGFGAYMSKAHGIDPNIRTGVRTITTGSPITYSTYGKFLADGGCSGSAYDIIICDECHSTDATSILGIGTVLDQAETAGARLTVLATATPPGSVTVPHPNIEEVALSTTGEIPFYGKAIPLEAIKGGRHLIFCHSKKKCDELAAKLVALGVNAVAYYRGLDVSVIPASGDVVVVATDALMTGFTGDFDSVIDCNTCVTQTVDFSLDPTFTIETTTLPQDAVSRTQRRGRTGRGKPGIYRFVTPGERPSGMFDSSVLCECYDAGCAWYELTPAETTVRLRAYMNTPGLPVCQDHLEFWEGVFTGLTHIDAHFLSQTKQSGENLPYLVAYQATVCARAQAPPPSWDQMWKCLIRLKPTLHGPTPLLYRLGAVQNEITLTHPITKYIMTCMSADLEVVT
Genome polyprotein, sequence (P29990 2492-3391 limits assumed): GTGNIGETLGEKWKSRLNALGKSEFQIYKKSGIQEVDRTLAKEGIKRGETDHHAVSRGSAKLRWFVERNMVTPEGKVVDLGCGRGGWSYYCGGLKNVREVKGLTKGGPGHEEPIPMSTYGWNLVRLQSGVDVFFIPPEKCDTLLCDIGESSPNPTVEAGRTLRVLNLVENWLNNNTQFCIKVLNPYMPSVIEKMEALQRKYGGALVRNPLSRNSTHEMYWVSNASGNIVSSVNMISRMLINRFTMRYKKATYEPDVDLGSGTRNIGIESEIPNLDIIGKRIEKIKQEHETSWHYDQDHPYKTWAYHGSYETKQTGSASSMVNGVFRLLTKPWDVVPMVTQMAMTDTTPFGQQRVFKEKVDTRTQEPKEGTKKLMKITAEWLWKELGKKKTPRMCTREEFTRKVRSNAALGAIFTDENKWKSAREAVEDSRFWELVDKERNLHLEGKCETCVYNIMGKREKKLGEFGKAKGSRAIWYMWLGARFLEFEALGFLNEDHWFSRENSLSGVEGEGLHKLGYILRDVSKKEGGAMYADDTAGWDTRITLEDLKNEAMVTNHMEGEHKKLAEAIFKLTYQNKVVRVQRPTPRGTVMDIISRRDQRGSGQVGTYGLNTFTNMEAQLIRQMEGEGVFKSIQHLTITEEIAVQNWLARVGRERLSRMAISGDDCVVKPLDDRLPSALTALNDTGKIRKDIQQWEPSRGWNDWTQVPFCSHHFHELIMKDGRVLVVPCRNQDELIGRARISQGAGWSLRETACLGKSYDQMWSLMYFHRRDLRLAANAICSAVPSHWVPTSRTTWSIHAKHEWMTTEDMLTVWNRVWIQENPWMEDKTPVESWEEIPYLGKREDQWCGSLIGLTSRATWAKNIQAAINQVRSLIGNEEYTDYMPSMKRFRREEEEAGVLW

CC1(C)CC(=O)C2=C(C1)c1c(ccc3ccccc13)NC2c1cc([N+](=O)[O-])cc([N+](=O)[O-])c1O (configuration not stated)
EC50 (Streptokinase A): > 150 µM (not active)
IC50 [1]: 29.9 µM (active)
EC50 [2]: 4.43 µM (active)
EC50 [3]: 106 µM (active)
EC50 [4]: 0.622 µM (active)
EC50 (Streptococcus): > 150 µM (not active)
IC50 (Aminopeptidase N): 29.4 µM (active)
IC50 (Genome polyprotein): 25.3 µM (active)

C[n+]1cc(C(=O)N2CCCCC2)ccc1/C=C/c1c[nH]c2ccccc12
IC50 [5]: 2.44 µM (active)
EC50 [6]: > 100 µM (active)
IC50 [7]: 2.7 µM (active)

O=C1CC(N2CCN(c3cccc(C(F)(F)F)c3)CC2)C(=O)N1c1ccc(F)cc1 (configuration not stated)
EC50 [8]: > 100 µM (not active)

Cc1ccc(N=C(S)N=C(N)Nc2nc(C)c3cc(C)ccc3n2)c(C)c1
IC50 [9]: > 35 µM (not active)
IC50 [10]: 22.9 µM (not active)

CC(=O)c1cc(C#N)c(SCC(=O)c2ccc(O)c(O)c2)nc1C
EC50 (Bcl-2-like protein 10): 11 µM (active)

COc1ccc(N2C(=O)NC(=O)/C(=C/c3ccc([N+](=O)[O-])s3)C2=O)cc1
EC50 [11]: 24.3 µM (active)
CC50 (Vero): > 25 µM (active)
IC50 (cells): 26.7 µM (active)
CC50 [12]: 38.5 µM (active)
IC50 (NS3): 9.42 µM (active)
EC50 [13]: 8.55 µM (active)
EC50 [14]: > 300 µM (not active)
